This note sets out measurements from patent US20100322979A1, “Peptidomimetic Resorbable Peptide-Polymer Hybrid Polyester Nanoparticles” (UNIVERSITY OF SOUTH CAROLINA, priority 2009, published 2010).

Read-outs that look alike come from different tables or passages of the source. Ends that are not written are not given here.

One data set concerns mouse breast cancer MTCL. Nature of the data set: In vivo effect of the NPs on host toxicity and anti-tumor efficacy. The conditions noted are these: tail vein injection; Dox 6 mg/kg of body weight where present. How it is done: In accordance with the present disclosure, a mouse breast cancer MTCL grown under the back skin of syngeneic C3H mice was utilized. When the tumor size reached 300 mm^3, mice were randomly divided into 6 groups (10 mice/group) and received one of these treatments by tail vein injection: PBS, PLAA-EO NPs, PLAA-CV6K2 NPs, Dox, Dox+PLAA-EO NPs, and Dox+PLAA-CV6K2 NPs. The injected Dox amount was 6 mg/kg of body weight. After the treatment, body weight and tumor size were measured daily and the results are shown in FIGS. 10a and 10b, respectively. […] Near-infrared (NIR) imaging was used to determine in vivo distribution of the NPs loaded with near-infrared dye IRDye 800RS Carboxylate (absorption at 786 nm). The infrared intensity in the intestinal region was at least 100 times higher than the other regions (confirmed by sacrificing the animal and directly imaging the intestinal tissue as shown in the inset of FIG. 10c).

The test system of a further data set is HCT116 tumor cell line. Nature of the data set: Tumor cell toxicity, MTT assay. The class given is cell-based. The conditions noted are these: Homo sapiens, HCT-116, 72 h; 40 μg/ml Paclitaxel, after 3 days; read-out: cell viability (percentage of drug-free samples). How it is done: Tumor cell toxicity was determined by incubating Paclitaxel drug, encapsulated in NPs, with HCT116 tumor cell line, seeded at a density of 5×10^4 cells/cm^2 and cultured in basal media (40 μg/ml Paclitaxel) for 24, 48, and 72 h. At each time point, suspension was removed, cells were washed with PBS, and viability was assessed by the MTT assay. FIG. 3(d) compares cell viability of HCT116 cells (expressed as the percentage of the values obtained from cells in the presence of drug compared to those in drug-free samples) incubated with 40 μg/ml Paclitaxel with that incubated with the same concentration encapsulated in PLGF NPs. […] Cell viability of Paclitaxel in solution after 3 days was 40% while that encapsulated in NPs was 28%. […] Toxicity of CV6K2-PLGF NPs to normal cells was assessed with bone marrow stromal (BMS) cells isolated from the bone marrow of Wistar rats. BMS cells were seeded in 24 well plates in primary media at a density of 4×10^4 cells/cm^2, incubated for 24 h for cell attachment. After cell attachment, the media was replaced with media containing […] of CV6K2-PLGF NPs and incubated for 1, 2, and 3 days. At each time point, the cells were washed with PBS to remove the free NPs, and the fraction of viable cells was measured by the MTT assay.

The nature of data set [1]: NP morphology and size distribution by electron microscopy and dynamic light scattering. The conditions noted are these: Example 2. The data set is classed as physicochemical. The text has this:
Fumarate functionalized poly(lactide-co-glycolide) (PLGF) NPs are conjugated with CV6K2 peptide to stabilize the NPs through specific interactions between the amino acid side chains. Low molecular weight poly(lactide-co-glycolide) (LMW PLGA) are synthesized by ring opening polymerization of a mixture of lactide and glycolide monomers. PLGF was synthesized by polymerization of ULMW PLGA with fumaryl chloride (FuCl). The fumarate groups in PLGF macromer provide functionality for covalent attachment of ligands which bind with high specificity to receptors on tumor-associated cells, like the αvβ3 integrin receptor. ULMW PLGA with number-average molecular weight in the range 1-3 kDa was used in the synthesis of PLGF for highest density of unsaturated fumarate groups for ligand conjugation. […] The morphology and size distribution of the NPs were determined by SEM and dynamic light scattering, respectively. […]
Nanoparticle (NP) self-assembly and characterization: PLAF-CV6K2 or PLGF-CV6K2 macromers were dissolved in a solution of 1 mL DMF and 8 mL dimethysulfoxide (DMSO). […] The size distribution of NPs was measured by dynamic light scattering (DLS). […] At each time point, NPs size was measured with DLS. […] The fraction of mass remaining was determined by dividing the dried mass in the supernatant at time t by the initial mass at time zero.

The nature of data set [2]: Release kinetics of Paclitaxel from NPs in-vitro in PBS (pH 7.4). The class given is physicochemical. Here is the method: Degradation and release characteristics of NPs. PLGF macromer with 100:0 lactide to glycolide ratio (PLAF) was synthesized by condensation polymerization. CV6K2 peptide was conjugated to PLAF to produce CV6K2-PLAF macromer. PLGF-PLEOF and CV6K2-PLGF NPs were produced by dialysis of the macromers in dimethylsulfoxide/dimethylformamide (DMSO/DMF) against water. Degradation of PLGF-PLEOF NPs was non-linear with incubation. […] To measure release kinetics, Paclitaxel was used as the surrogate molecule. Paclitaxel loaded NPs were prepared by dialysis. After dialysis, the NPs were dissolved in DMSO and 3 ml of acetonitrile-water mixture (50:50 v/v) was added. After 2 h, the suspension was centrifuged and the amount of Paclitaxel in the supernatant was measured by isocratic reverse-phase HPLC with a photodiode array detector at the wavelength of 227 nm. The encapsulation efficiency ranged from 70 to 56% and decreased with increasing Paclitaxel concentration. […]
Release profiles of Paclitaxel from CV6K2 NPs: NPs (6% Paclitaxel by weight of the PLAF or PLGF macromer) were prepared by dialysis. After dialysis for 24 h to self-assemble the macromers and to remove the unencapsulated Paclitaxel, encapsulation efficiency was determined by HPLC. The release kinetics of Paclitaxel from the NPs was measured in-vitro in PBS (pH 7.4) for up to 28 days. […]

A further data set deals with MCF-7 cells. The experiment in a line: Binding of cyclic peptide grafted NPs to tumor cells, confocal microscopy. The class given is cell-based. The text has this: (§1) Targeting to tumor endothelial cells by grafting cyclic c(-RGDfC-) peptide to NPs: The linear D-Phe-Cys-Arg-Gly-Asp peptide was synthesized manually using Fmoc chemistry. After peptide chain elongation, the linear peptide was cyclized directly on the peptidyl resin by coupling the carboxylate group on aspartic acid to the amine group on phenylalanine in the peptide sequence. The cyclized peptide was side-chain deprotected, cleaved from the resin, precipitated in cold ether, and purified by preparative high-performance liquid chromatography (HPLC). The cyclic peptide was characterized by Electro Spray Ionization (ESI) spectrometry For grafting, […] peptide was incubated with NPs at ambient conditions for 10 h. After grafting, the NPs were purified by dialysis against water and incubated with MCF-7 and U87MG tumor cells. After incubation, unattached NPs were removed by washing, cells were fixed, and stained with phalloidin (for cytoskeleton) and DAPI (for cell nuclei) and imaged with confocal microscopy. FIGS. 5(a) and 5(b) show the image of MCF-7 and U87MG cells, respectively. The bright dots in FIG. 5(b) and their absence in FIG. 5(a) are the FITC-stained c(-GRGfC-) peptide grafted NPs that are attached/internalized by U87MG cells that have high expression of αvβ3 integrin receptor.

Data set [3] has as its system U87MG cells (high expression of αvβ3 integrin receptor). The description is as above. The data set is classed as cell-based.
Source text: as §1

`COc1cccc2c1C(=O)c1c(O)c3c(c(O)c1C2=O)C[C@@](O)(C(=O)CO)C[C@@H]3O[C@H]1C[C@H](N)[C@H](O)[C@H](C)O1` [Dox]: the “host toxicity (body weight change)” value in the data set with mouse breast cancer MTCL was “highest body weight loss”.

Broadly, the viability is the share of living cells, or the viability signal relative to a control. Consider `CC(=O)O[C@H]1C(=O)[C@@]2(C)[C@H]([C@H](OC(=O)c3ccccc3)[C@]3(O)C[C@H](OC(=O)[C@H](O)[C@@H](NC(=O)c4ccccc4)c4ccccc4)C(C)=C1C3(C)C)[C@]1(OC(C)=O)CO[C@@H]1C[C@@H]2O` [Paclitaxel], for which the viability at 40 µg/mL with HCT116 tumor cell line came to 40%.

Regarding “CVVVVVVKK [CV6K2 NPs, NPs self-assembled from the CV6K2 peptide only]”, in data set [1], the “average diameter (NP size), DLS” value was determined as 70 nm. Besides, the “duration of Paclitaxel release” value in data set [2] is 3 days; in data set [2] (listed as peptide), 5 days. In the case of “c(-GRGfC-) grafted NPs: FITC-stained NPs grafted with cyclic D-Phe-Cys-Arg-Gly-Asp peptide”, the “attachment/internalization of FITC-stained grafted NPs” value in the data set with MCF-7 cells is on record as “absence”; in data set [3], “attached/internalized”.
